In PMC8953385, “2-Styrylchromones: Cytotoxicity and Modulation of Human Neutrophils’ Oxidative Burst” (Pharmaceuticals, 2022):

Key:
[1] = O2•−, cited from earlier work
[2] = system: human neutrophils’ oxidative burst; assay: Neutrophils’ oxidative burst, PMA stimulation, luminol chemiluminescence; assay type: cell-based; settings: Homo sapiens, Neutrophil
Source text: (§1) Following the Declaration of Helsinki and the approval of patient-related procedures and protocols by the Ethics Committee of Centro Hospitalar do Porto, Portugal, venous blood was collected from healthy human blood donors, after informed consent. The blood was stored into K3EDTA vacuum tubes after antecubital venipuncture of the donors. In order to obtain the isolated neutrophils, the density gradient centrifugation method was applied, as previously reported, with modifications. In brief, in a 15 mL polypropylene tube, 3 mL of histopaque 1119 were added followed by 3 mL of histopaque 1077 and finally, 4.5 mL of the collected blood were slowly added. Each tube was centrifuged at 900× g at 20 °C for 30 min, with a medium acceleration and deceleration speed. Following centrifugation, the neutrophils’ portion was harvested, and PBS was added to double the volume. The neutrophils’ suspension was then centrifuged at 850× g at 4 °C for 5 min, using a maximum acceleration and deceleration speed. The supernatant was discarded, and the neutrophils’ pellet was resuspended in PBS and afterward milli-Q water was added to lyse the residual erythrocytes. The tube was gently homogenized and after a few minutes, 3% NaCl was added to restore isotony, and then centrifuged again at 850× g at 4 °C for 5 min, using a maximum acceleration and deceleration speed. The supernatant was discarded, and a neutrophils’ pellet was obtained. After isolation, the neutrophils’ pellet was resuspended in the incubation media, tris-glucose buffer (25 mM Trizma® base, 5.5 mM D-glucose, 140 mM NaCl, 1.26 mM CaCl2, 0.81 mM MgSO4, 5.37 mM KCl, pH = 7.4). Neutrophils’ suspension was kept on ice, under soft shaking, until use. The trypan blue exclusion method was used to determine cells’ yield and viability.
The effect of 2-SC on the modulation of neutrophils’ oxidative burst was assessed after the stimulation of these cells with PMA by monitoring the oxidation of chemiluminescent probe, luminol, by the generated reactive species (Figure S2), according to a previously described methodology. Briefly, neutrophils (1 × 10^6 cells/mL) were pre-incubated with luminol (500.00 μM), and 2-SC (0.00–100.00 μM) or DMSO, at the final concentrations indicated. After this pre-incubation, at 37 °C for 5 min, PMA (160.00 nM) was added, and in turn, neutrophils’ stimulation was initiated. Kinetic readings were immediately initiated and followed for 40 min, at 37 °C, in a microplate reader. The arbitrary chemiluminescence value was taken at the peak of the curve, and the results were expressed as the inhibition percentage of luminol oxidation.
GraphPad Prism 6 software was used to plot the curves of percentage of inhibition versus concentrations of compound, from which the concentration that produces 50% of inhibition (IC50) was determined. GraphPad Prism 6 software was also used to perform all statistical analyses. […] In all cases, p-values < 0.05 were considered statistically significant. The results are expressed as mean ± standard error of the mean (SEM).

human neutrophils = assay: Annexin V/PI flow cytometric assay of neutrophils’ viability; assay type: cell-based; settings: for Higher 2-SC concentration that did not affect human neutrophils’ viability: annexin V/PI assay, 40 min incubation at 37 °C
Source text: as §1
(§2) The effect of the studied 2-SC on neutrophils’ viability was assessed by flow cytometry, after simultaneous staining with FITC Annexin V and propidium iodide (PI) (Figure S1), as previously reported by our research group, with modifications. After isolation, neutrophils (1 × 10^6 cells/mL) were incubated with 2-SC (up to 100.00 μM) or DMSO for 40 min, at 37 °C, in a 48-well plate. At the end of incubation, the content of each well was transferred to conical microtubes and centrifuged at 400× g at 20 °C for 5 min. After discarding the supernatant, the neutrophils’ pellet was resuspended in PBS and centrifuged under the previous conditions. Once the supernatant was removed, the pellet was resuspended in 10× diluted binding buffer, and then PI and annexin V were added. This mixture was incubated in the dark at room temperature for 15 min, and finally, 10× diluted binding buffer was added. In a flow cytometer, the fluorescence signal, of at least 10,000 cells/sample, were collected in logarithmic mode and followed in channels 1 and 3. The green fluorescence corresponding to annexin V FITC was accompanied in channel 1 and plotted as a histogram of FL1 staining, whereas the fluorescence corresponding to PI was monitored in channel 3 and plotted in the same histogram but as FL3 staining. The collected data were analyzed with the BD Accuri™ C6 software. The data analysis was restricted to the neutrophils’ population. Thus, according to the light-scattering properties of neutrophils (in a forward versus side scatter plot), a polygon gate was drawn, where debris and other blood cells were excluded. The effect of 2-SC on neutrophils’ viability was expressed as a relative percentage of apoptotic and/or necrotic cells when compared to the control (without 2-SC).

[3] = as above; assay type: cell-based, human; settings: human, isolated human neutrophils, pH 7.4, representative plot, Figure 4, read-out: Viable cells [annexin V (−)/PI (−)], lower left quadrant
Source text: as §1, §2

Structure (SMILES) | Scavenging activity of reactive species ([1]; 1O2, •NO and ONOO−) | IC50 ([2]; PMA 160.00 nM, luminol 500.00 μM, mean ± SEM, read-out: IC50, inhibition of human neutrophils’ oxidative burst) [nM] | Higher 2-SC concentration that did not affect human neutrophils’ viability (human neutrophils) [µM] | Scavenging of reactive species ([1]; H2O2, HOCl, 1O2, •NO, ONOO−) | inhibition at 25 µM ([2]; 25.00 µM (highest tested concentration), read-out: Inhibitory activity (% ± SEM), neutrophils’ oxidative burst) [%] | Effect on total neutrophils’ population percentage (human neutrophils; 50.00 μM) | Induction of late apoptosis (human neutrophils; 50.00 μM) | viability at 40 min, 25 µM ([3]; 25.00 μM) [%] | viability at 40 min, 50 µM ([3]; 50.00 μM) [%]
COc1ccc(/C=C/c2cc(=O)c3ccc(O)c(O)c3o2)cc1OC [C8] | good scavenging activity | 1400 ± 200 | 6.25 | – | – | – | – | – | –
O=c1cc(/C=C/c2ccc(O)cc2)oc2cccc(O)c12 [B2] | – | – | 6.25 | much less active or inactive | – | – | – | – | –
O=c1cc(/C=C/c2ccccc2)oc2cc(O)cc(O)c12 [A4] | – | – | 25.00 | – | < 30 | significantly affected the total neutrophils’ population percentage | induced late apoptosis | 88.4 | 63.8
